Measured values from patent US20170334899A1, “AMINO-SUBSTITUTED ISOTHIAZOLES” (Bayer Pharma Aktiengesellschaft, priority 2014, published 2017).

Tests used:
CDK2/CycE = target: T1, CDK2/CycE (Homo sapiens, UniProt P24941); assay: CDK2/CycE kinase assay (TR-FRET); type: biochemical; conditions: avg, read-out: CDK2 avg (IC50 [mol/l])
T1 construct: GST; purchased ProQinase GmbH (Freiburg, Germany); host or cells: insect cells (Sf9)
Method in brief: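 GST-tagged human CDK2 and CycE from Sf9 cells, preincubated 15 min with compound, then 25 min at 22° C. with 10 μM ATP and 0.75 μM biotinylated Rb-derived peptide (final). Phospho-substrate read by TR-FRET (anti-pRB pSer807/pSer811, Eu anti-mouse IgG, streptavidin-XL665), 665/620 nm ratio, normalised to no-inhibitor and no-enzyme controls.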

[1] = target: T2, catalytic domain of human Bub1 (amino acids 704-1085) (Homo sapiens, UniProt O43683); assay: Bub1 kinase assay (TR-FRET); type: biochemical; conditions: 10 μM ATP, avg, read-out: Bub1 avg (IC50 [mol/l])
T2 construct: catalytic domain of human Bub1 (amino acids 704-1085); His6 (N); made in house; host or cells: insect cells (Hi5)
T2 sequence (O43683 704-1085): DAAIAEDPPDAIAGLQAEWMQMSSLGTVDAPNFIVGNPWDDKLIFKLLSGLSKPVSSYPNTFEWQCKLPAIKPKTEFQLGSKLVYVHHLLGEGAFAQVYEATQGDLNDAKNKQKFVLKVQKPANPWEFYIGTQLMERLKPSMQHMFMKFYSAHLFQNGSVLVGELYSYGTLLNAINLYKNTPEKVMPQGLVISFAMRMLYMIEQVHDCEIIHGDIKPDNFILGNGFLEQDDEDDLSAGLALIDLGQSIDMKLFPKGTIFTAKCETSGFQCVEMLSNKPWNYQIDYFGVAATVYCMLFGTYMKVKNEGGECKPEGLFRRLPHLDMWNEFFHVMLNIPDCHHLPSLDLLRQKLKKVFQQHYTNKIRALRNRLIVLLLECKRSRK
Method in brief: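 Readout is the 665/620 nm TR-FRET ratio from anti-phosphoserine antibody, Eu-labelled anti-mouse IgG and streptavidin-XL665, scaled between no-enzyme and uninhibited controls. Reaction: 1 μM biotinylated peptide, 10 μM ATP, 60 min, 22 °C, after 15 min compound preincubation with His6-Bub1 (704-1085, insect-expressed, ~200 ng/ml).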

Structure (SMILES)	IC50 (CDK2/CycE) [µM]	IC50 [1] [µM]
Cc1nsc(Nc2cc(C#N)ccn2)c1C(=O)Nc1ccc(NC2CCCNC2)nc1 (stereo not drawn) [Example 242, 5-[(4-cyanopyridin-2-yl)amino]-3-methyl-N-[6-(piperidin-3-ylamino)pyridin-3-yl]-1,2-thiazole-4-carboxamide]	> 20	> 20
Cc1cc(C)n(-c2ccccc2NC(=O)c2c(C)nsc2Nc2cnc3ccccc3n2)n1 [Example 243, N-[2-(3,5-dimethyl-1H-pyrazol-1-yl)phenyl]-3-methyl-5-(quinoxalin-2-ylamino)-1,2-thiazole-4-carboxamide]	> 20	> 20
Cc1nsc(Nc2ccc(C#N)cn2)c1C(=O)Nc1ccc(S(C)(=O)=O)cc1 [Example 246, 5-[(5-cyanopyridin-2-yl)amino]-3-methyl-N-[4-(methylsulfonyl)phenyl]-1,2-thiazole-4-carboxamide]	> 20	> 20
CCN(CC)CCNC(=O)c1cccc(NC(=O)c2c(C)nsc2Nc2cnccn2)c1 [Example 247, N-(3-{[2-(diethylamino)ethyl]carbamoyl}phenyl)-3-methyl-5-(pyrazin-2-ylamino)-1,2-thiazole-4-carboxamide]	> 20	> 20

Other lines, results leading:

IC50 (CDK2/CycE) [µM]	IC50 [1] [µM]	Structure (SMILES)
> 20	> 20	Cc1nsc(Nc2cnc3ccccc3n2)c1C(=O)Nc1ccc(NCCNC(=O)OC(C)(C)C)nc1 [Example 244, tert-butyl (2-{[5-({[3-methyl-5-(quinoxalin-2-ylamino)-1,2-thiazol-4-yl]carbonyl}amino)pyridin-2-yl]amino}ethyl)carbamate]
12	> 20	Cc1nsc(Nc2cnc3ccccc3n2)c1C(=O)Nc1ccc(Nc2ccc(F)c(F)c2)nc1 [Example 245, N-{6-[(3,4-difluorophenyl)amino]pyridin-3-yl}-3-methyl-5-(quinoxalin-2-ylamino)-1,2-thiazole-4-carboxamide]
